Patent US11667651B2, “Aminopyridine derivatives as phosphatidylinositol phosphate kinase inhibitors” (HiberCell, Inc., priority 2017, dated 2023)

Key:
Type in all cases: biochemical
PIP4K2A [1] = molecular target: T1, PIP4K2A (Homo sapiens, UniProt P48426); experiment: Kinase Assay PIP4K2 A (Table 2); set-up: 4 nM PIP4K2A (full length protein, SignalChem); purchased SignalChem; details: compounds listed under IC50 bins
T1 sequence (P48426 1-406): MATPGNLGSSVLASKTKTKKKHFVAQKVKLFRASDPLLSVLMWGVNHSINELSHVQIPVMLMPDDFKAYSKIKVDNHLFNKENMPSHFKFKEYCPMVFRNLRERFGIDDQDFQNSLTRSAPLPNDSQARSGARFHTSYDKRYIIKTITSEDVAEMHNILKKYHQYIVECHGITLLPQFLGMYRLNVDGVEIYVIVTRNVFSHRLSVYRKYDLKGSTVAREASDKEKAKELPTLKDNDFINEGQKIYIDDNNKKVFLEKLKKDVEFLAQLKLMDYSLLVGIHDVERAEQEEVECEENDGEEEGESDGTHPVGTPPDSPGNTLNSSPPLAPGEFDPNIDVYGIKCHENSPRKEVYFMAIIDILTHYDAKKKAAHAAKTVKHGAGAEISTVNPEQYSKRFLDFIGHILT
Method in brief: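 ADP-Glo luminescent read-out after 1 h room-temperature kinase reaction, started with 60 μM ATP solution following 15 min compound pre-incubation. Enzyme/substrate mix: 4 nM full-length PIP4K2A plus 100 μM PI(5)P diC8; buffer MOPS pH 7.2 with 25 mM MgCl2 and Tween 20. IC50 from 10-point, 3-fold titrations normalized to DMSO.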

PIP4K2B = molecular target: T2, PIP4K2B (Homo sapiens, UniProt P78356); experiment: Trans-FI P kinase assay PIP4K2B (Table 4); details: compounds listed under IC50 bins; read-out: Trans-FI P kinase assays: PIP4K2B IC50
T2 construct: made in house; host or cells: E. coli
T2 sequence (P78356 1-416): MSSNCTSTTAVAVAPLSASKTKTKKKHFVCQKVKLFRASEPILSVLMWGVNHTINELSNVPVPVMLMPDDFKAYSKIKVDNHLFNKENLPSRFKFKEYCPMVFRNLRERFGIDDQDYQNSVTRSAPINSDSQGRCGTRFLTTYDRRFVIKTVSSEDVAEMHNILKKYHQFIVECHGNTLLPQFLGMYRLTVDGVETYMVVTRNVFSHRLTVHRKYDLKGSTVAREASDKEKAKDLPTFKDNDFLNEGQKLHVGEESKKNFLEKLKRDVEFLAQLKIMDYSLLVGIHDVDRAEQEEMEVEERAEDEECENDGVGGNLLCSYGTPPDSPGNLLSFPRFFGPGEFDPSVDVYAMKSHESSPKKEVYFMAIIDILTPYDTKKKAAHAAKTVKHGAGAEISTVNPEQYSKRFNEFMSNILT
Method in brief: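 Transcreener FI detection (Ex 584/Em 623) of GDP, converted via calibration curve, gives IC50 from residual activity versus log concentration (highest 4.8 μM). Reaction: 80 μM PI5P plus DOPE carrier, 100 μM GTP, 5 nM GST-tagged enzyme, pH 7.3 HEPES with MgCl2 and 5% DMSO, 2 h after 1 h enzyme-compound preincubation at 27° C.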

PIP4K2A [2] = molecular target: T1, PIP4K2A; experiment: ADP-glo kinase assay PIP4K 2A (Table 3); set-up: made in house; host or cells: E. coli; details: compounds listed under IC50 bins
Method in brief: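 ADP-Glo luminescence detected ADP after 1 h RT reaction started by ATP (60 μM solution) on full-length PIP4K2A (4 nM in mix) and PI(5)P diC8 (100 μM in mix), preceded by 15 min enzyme-compound preincubation in MOPS pH 7.2/25 mM MgCl2. Percent inhibition versus DMSO over 10 concentrations fitted for IC50.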

Compound	IC50 (PIP4K2A [1])	IC50 (PIP4K2B)	IC50 (PIP4K2A [2])
CC1(C)C[C@H]2COc3ncc(Nc4ccc(-c5ccc(N6CCCC6=O)c(F)c5)cn4)cc3N2C1=O [Example 258, (S)-2-((5-(3-fluoro-4-(2-oxopyrrolidin-1-yl)phenyl)pyridin-2-yl)amino)-8,8-dimethyl-6,6a,7,8-tetrahydro-9H-pyrido[2,3-b]pyrrolo[1,2-d][1,4]oxazin-9-one]	1 to 10 nM	10 to 100 nM	1 to 10 nM
O=C1CCCN1c1ccc(-c2ccc(Nc3cnc4c(c3)N3C(=O)C(O)C[C@H]3CO4)nc2)cc1F (stereo partly drawn) [Example 267, (6aS)-2-((5-(3-fluoro-4-(2-oxopyrrolidin-1-yl)phenyl)pyridin-2-yl)amino)-8-hydroxy-6,6a,7,8-tetrahydro-9H-pyrido[2,3-b]pyrrolo[1,2-d][1,4]oxazin-9-one]	1 to 10 nM	10 to 100 nM	10 to 100 nM
O=C1CCCN1c1ccc(-c2ccc(Nc3cnc4c(c3)N3C(=O)C(O)C[C@H]3CO4)nc2)cc1 (stereo partly drawn) [Example 268, (6aS)-8-hydroxy-2-((5-(4-(2-oxopyrrolidin-1-yl)phenyl)pyridin-2-yl)amino)-6,6a,7,8-tetrahydro-9H-pyrido[2,3-b]pyrrolo[1,2-d][1,4]oxazin-9-one]	1 to 10 nM	10 to 100 nM	10 to 100 nM
